Values of other authors in patent US20220280598A1, “COMPLEMENT INHIBITOR DOSING REGIMENS” (Apellis Pharmaceuticals, Inc., priority 2019, published 2022).

Key:
[1] = tested on: complement activation (alternative pathway); conditions: alternative pathway-mediated erythrocyte lysis assay (WO2004/026328); cited from earlier work
[2] = tested on: complement activation; conditions: relative to compstatin amidated at the C-terminus; published data; cited from earlier work

CC[C@H](C)[C@H](N)C(=O)N[C@H]1CSSC[C@@H](C(=O)N[C@H](C(N)=O)[C@@H](C)O)NC(=O)[C@H](CCCN=C(N)N)NC(=O)[C@H](Cc2cnc[nH]2)NC(=O)[C@H](Cc2cnc[nH]2)NC(=O)CNC(=O)[C@H](Cc2c[nH]c3ccccc23)NC(=O)[C@H](CC(=O)O)NC(=O)[C@H](CCC(N)=O)NC(=O)[C@H](C(C)C)NC(=O)[C@H](C(C)C)NC1=O [Compstatin, H-ICVVQDWGHHRCT-CONH2]
IC50 [1]: 12 µM

Ac-ICVVQDWGHHRCT-CONH2 [Ac-compstatin]
Activity over compstatin [2]: 3 × more
